Results on eight compounds are retold here after the supplement of paper PMC4862054.

Assay [1] relates to HCC1599. The assay can be described thus: drug sensitivity score (DSS), CellTiter-Blue viability (DSS (AUC-based score)); higher = stronger viability inhibition; extreme values may be limits of the assay. The conditions noted are these: incubation time: 72 h. On the procedure:
(§1)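 DSRT with the CellTiter-Blue (resazurin reduction) viability readout, fluorescence 560/590 nm, 72 h incubation. Plates were normalised to DMSO and benzethonium chloride controls. DSS is computed from the area under the fitted dose-response curve (5 or 9 concentrations).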
For orientation: Resazurin is reduced to fluorescent resorufin, in cell work by metabolically active cells.

The test system of assay [2] is MDA-MB-436. The description is as above. The conditions noted are these: incubation time: 72 h. On the procedure: as §1
Assay [3] relates to CAL-148. The assay is described as above. The following applies: incubation time: 72 h. On the procedure:
as §1

For assay [4], the system named is HCC1937. Described as above. The following applies: incubation time: 72 h. As for the experimental part: as §1
The test system of a further assay is HDQ-P1. The conditions noted are these: 72 h. The essentials:
(§2)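 Per-plate normalisation used 0.1 % DMSO and a positive kill control. Breast cancer cell lines (20 µl suspension) were seeded into 384-well plates containing compound at 5 concentrations in 10-fold steps across a compound-specific 10,000-fold range, incubated for 72 h, and read first for CellTox Green fluorescence (485/520 nm), then for CellTiter-Glo luminescence. EC50 was fitted from the dose-response curves and censored at the top concentration.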

The subject of assay [5] is HCC1599. The following applies: 72 h. The procedure, abridged:
as §2

For a further assay, the system named is MFM-223. The conditions noted are these: 72 h. The procedure, abridged: as §2
The subject of another assay is MDA-MB-453. The conditions noted are these: 72 h. The procedure, abridged: as §2
Another assay concerns SK-BR-3. The conditions noted are these: 72 h. The essentials:
as §2

The subject of the next assay is CAL-51. The following applies: 72 h. The procedure, abridged: as §2
For the next assay, the system named is MDA-MB-231. The following applies: 72 h. The essentials: as §2
Assay [6] has as its system HCC1937. The conditions noted are these: 72 h. The procedure, abridged: as §2
Another assay relates to BT-549. The following applies: 72 h. The procedure, abridged: as §2
The subject of a further assay is BT-474. The conditions noted are these: 72 h. The procedure, abridged:
as §2

In the next assay the test system is HCC1143. The conditions noted are these: 72 h. The procedure, abridged: as §2
For the next assay, the system named is CAL-120. The following applies: 72 h. The essentials:
as §2

In a further assay the test system is MCF-10A. The following applies: 72 h. The essentials: as §2
Assay [7] concerns MDA-MB-436. The conditions noted are these: 72 h. The procedure, abridged: as §2
The test system of the next assay is CAL-85-1. The conditions noted are these: 72 h. The essentials:
as §2

Another assay has as its system Hs578T. The following applies: 72 h. The essentials:
as §2

In a further assay the test system is DU-4475. The conditions noted are these: 72 h. The procedure, abridged:
as §2

For assay [8], the system named is CAL-148. The following applies: 72 h. The essentials: as §2

Consider `Oc1ccc2c(c1)CC[C@H](c1ccccc1)[C@@H]2c1ccc(OCCN2CCCC2)cc1` [Lasofoxifene], for which the drug sensitivity score in the assay on HCC1599 [1], with MDA-MB-436 [2], with CAL-148 [3] and in the assay on HCC1937 [4] was 0 throughout.
On to `Cc1ccc(NC(=O)c2ccc(CN3CCN(C)CC3)cc2)cc1Nc1nc(-c2cccnc2)cs1` [Masitinib], for which the drug sensitivity score in the assay on HCC1599 [1] was found to be 0; with MDA-MB-436 [2], 0.552; with CAL-148 [3], 0; in the assay on HCC1937 [4], 0. Moreover, the “EC50, CellTiter-Glo” value is 4.91 µM with HDQ-P1; 9.36 µM in the assay with HCC1599 [5]; above 10 µM with MFM-223; 1.62 µM in the assay with MDA-MB-453; 7.39 µM in the assay on SK-BR-3; 5.46 µM in the assay with CAL-51. The “EC50, CellTiter-Glo” value with MDA-MB-231 is above 10 µM; in the assay on HCC1937 [6] it was above 10 µM; with BT-549, 1.88 µM; with BT-474, 7.58 µM.
With `COC(=O)c1ccc2c(c1)NC(=O)/C2=C(\Nc1ccc(N(C)C(=O)CN2CCN(C)CC2)cc1)c1ccccc1` [Nintedanib], the “EC50, CellTiter-Glo” value with HDQ-P1 amounted to 1.08 µM; in the assay on MFM-223, 0.408 µM; in the assay on MDA-MB-453, 3.11 µM; with HCC1143 it was 4.78 µM; in the assay with CAL-120 it was 2.38 µM; in the assay on MCF-10A, 0.584 µM. Moreover, the “EC50, CellTiter-Glo” value is 1.88 µM in the assay with CAL-51; 5.34 µM with MDA-MB-436 [7]; 2.58 µM in the assay on MDA-MB-231; 4.83 µM with HCC1937 [6]; 1.91 µM in the assay on BT-549; 3.55 µM in the assay with BT-474.
Turning to `O=C(Nc1cccnc1)N1CCC(Cc2cccc(Oc3ccc(C(F)(F)F)cn3)c2)CC1` [PF-3845], the drug sensitivity score in the assay on HCC1599 [1], with MDA-MB-436 [2], with CAL-148 [3] and with HCC1937 [4] was 0 in each case. Also, the “EC50, CellTiter-Glo” value is 9.42 µM in the assay on HCC1599 [5]; above 10 µM in the assay on CAL-85-1; above 10 µM in the assay on CAL-120; 4.2 µM in the assay on CAL-51; 3.07 µM in the assay with BT-549.
Consider `COCC1(CO)C(=O)C2CCN1CC2` (stereo not drawn) [Prima-1 Met], for which the drug sensitivity score stood at 0 with HCC1599 [1], 0 in the assay on MDA-MB-436 [2], 0 with CAL-148 [3] and 3.72 in the assay on HCC1937 [4]. Further, in the assay on BT-549, the “EC50, CellTiter-Glo” value is 2.9 µM.
`CNC(=O)c1ccc(N2C(=S)N(c3ccc(C#N)c(C(F)(F)F)c3)C(=O)C23CCC3)cc1F` [RD162]: the “EC50, CellTiter-Glo” value in the assay on BT-474 is above 10 µM.
As to `CNC(=O)c1cc(Oc2ccc(NC(=O)Nc3ccc(Cl)c(C(F)(F)F)c3)c(F)c2)ccn1` [Regorafenib], the drug sensitivity score in the assay on HCC1599 [1] was found to be 1.06; in the assay with MDA-MB-436 [2] it was 0; in the assay with CAL-148 [3], 0; with HCC1937 [4], 3.4. In addition, the “EC50, CellTiter-Glo” value in the assay on HDQ-P1 is 5.11 µM; in the assay on HCC1599 [5] it was 8.02 µM; in the assay on MFM-223 it was 1.15 µM; in the assay with MDA-MB-453, 2.89 µM; with CAL-120, 9.95 µM; in the assay on SK-BR-3, above 10 µM. In addition, the “EC50, CellTiter-Glo” value worked out at 1.88 µM in the assay with MCF-10A; 2.29 µM with Hs578T; 0.216 µM with CAL-51; 6.38 µM in the assay with MDA-MB-436 [7]; 4.56 µM with MDA-MB-231; 2.97 µM in the assay on DU-4475. Besides, the “EC50, CellTiter-Glo” value was 4.59 µM in the assay with CAL-148 [8], above 10 µM in the assay on HCC1937 [6], 9.05 µM in the assay on BT-549 and 3.5 µM with BT-474.
`CO[C@H]1C[C@@H]2CC[C@@H](C)[C@@](O)(O2)C(=O)C(=O)N2CCCC[C@H]2C(=O)O[C@H]([C@H](C)C[C@@H]2CC[C@@H](OP(C)(C)=O)[C@H](OC)C2)CC(=O)[C@H](C)/C=C(\C)[C@@H](O)[C@@H](OC)C(=O)[C@H](C)C[C@H](C)/C=C/C=C/C=C/1C` [Ridaforolimus]: the drug sensitivity score in the assay with HCC1599 [1] was 0; in the assay with MDA-MB-436 [2] it was 1.25; with CAL-148 [3] it was 25; in the assay on HCC1937 [4], 17.2. Besides, the “EC50, CellTiter-Glo” value amounted to 0.00662 µM in the assay with HDQ-P1; 0.00098 µM with MFM-223; 0.00122 µM in the assay on MDA-MB-453; 0.00091 µM with HCC1143; 0.00057 µM with CAL-85-1; 0.0009 µM in the assay on CAL-120. Also, the “EC50, CellTiter-Glo” value in the assay with SK-BR-3 turned out to be 0.00078 µM; in the assay on Hs578T, 0.00042 µM; in the assay on CAL-51 it was 0.00161 µM; with MDA-MB-436 [7], 0.00103 µM; in the assay with DU-4475, 0.00224 µM; with CAL-148 [8], 0.00227 µM. In addition, the figures for the “EC50, CellTiter-Glo” value in the assay on HCC1937 [6] and in the assay on BT-549 were 0.00046 µM and 0.00044 µM, respectively.
